Assay type in all cases: functional
In one assay the test system is Klebsiella pneumoniae. Kind of assay: Minimum inhibitory concentration (MIC)preventing growth of Klebsiella pneumoniae.
Assay [1] relates to Staphylococcus epidermidis. Kind of assay: Minimum inhibitory concentration (MIC) preventing growth of Staphylococcus epidermidis.
For the next assay, the system named is Staphylococcus aureus. Nature of the assay: Minimum inhibitory concentration (MIC) preventing growth of […].
A further assay has as its system Enterococcus faecalis. Nature of the assay: Minimum inhibitory concentration (MIC) preventing growth of Streptococcus faecalis ATCC 10541.
The test system of another assay is Morganella morganii. Nature of the assay: Minimum inhibitory concentration (MIC) preventing growth of Morganella morganii.
The test system of the next assay is Bacillus subtilis. Nature of the assay: Minimum inhibitory concentration (MIC) preventing growth of Bacillus subtilis.
A further assay deals with Bacillus cereus. Nature of the assay: Minimum inhibitory concentration (MIC) preventing growth of Bacillus cereus.
The next assay deals with Pseudomonas aeruginosa. Kind of assay: Minimum inhibitory concentration (MIC)preventing growth of Pseudomonas aeruginosa.
In another assay the test system is Escherichia coli. Kind of assay: Minimum inhibitory concentration (MIC)preventing growth of Escherichia coli.
The next assay concerns Proteus vulgaris. Kind of assay: Minimum inhibitory concentration (MIC) preventing growth of Proteus vulgaris.
The subject of a further assay is Enterobacter cloacae. Nature of the assay: Minimum inhibitory concentration (MIC)preventing growth of Enterobacter cloacae.

Each structure is given as a SMILES string. Converted amounts (≈) assume the structure as drawn. Where only a bound is given, the exact number is not on record here.

This is an account of results in ChEMBL document CHEMBL1126625, “7-Azetidinylquinolones as antibacterial agents. Synthesis and structure-activity relationships” (J Med Chem, 1993).

For orientation: MIC means the lowest concentration that inhibits growth of the organism. A higher MIC goes with a need for much substance. Consider `CCn1cc(C(=O)O)c(=O)c2cc(F)c(N3CC(C)(N)C3)nc21`, for which the minimal inhibitory concentration (MIC) with Klebsiella pneumoniae was 0.12 µg/mL (≈ 0.375 µM); in assay [1], 1 µg/mL (≈ 3.12 µM); in the assay on Staphylococcus aureus it was 1 µg/mL (≈ 3.12 µM); against Enterococcus faecalis, 2 µg/mL (≈ 6.24 µM); in the assay with Morganella morganii, 0.25 µg/mL (≈ 0.78 µM); against Bacillus subtilis, 0.25 µg/mL (≈ 0.78 µM). Moreover, the MIC came to 1 µg/mL (≈ 3.12 µM) in the assay on Bacillus cereus; 2 µg/mL (≈ 6.24 µM) against Pseudomonas aeruginosa; 0.25 µg/mL (≈ 0.78 µM) in the assay on Escherichia coli; 1 µg/mL (≈ 3.12 µM) against Proteus vulgaris; 0.25 µg/mL (≈ 0.78 µM) in the assay on Enterobacter cloacae.
As to `CNC1(C)CN(c2nc3c(cc2F)c(=O)c(C(=O)O)cn3C(C)(C)C)C1`, the MIC in the assay on Klebsiella pneumoniae was 0.015 µg/mL (≈ 0.0414 µM); in assay [1] it was 0.12 µg/mL (≈ 0.331 µM); against Staphylococcus aureus, 0.12 µg/mL (≈ 0.331 µM); with Enterococcus faecalis, 1 µg/mL (≈ 2.76 µM); against Morganella morganii, 0.25 µg/mL (≈ 0.69 µM); with Bacillus subtilis, 0.015 µg/mL (≈ 0.0414 µM). Besides, the MIC against Bacillus cereus came to 0.06 µg/mL (≈ 0.166 µM); against Pseudomonas aeruginosa, 2 µg/mL (≈ 5.52 µM); against Escherichia coli it was 0.06 µg/mL (≈ 0.166 µM); with Proteus vulgaris, 0.25 µg/mL (≈ 0.69 µM); against Enterobacter cloacae it was 0.12 µg/mL (≈ 0.331 µM).
Regarding `CCC1(O)CN(c2cc3c(cc2F)c(=O)c(C(=O)O)cn3C2CC2)C1`, the minimum inhibitory concentration (MIC) against Klebsiella pneumoniae was found to be 0.12 µg/mL (≈ 0.346 µM); in assay [1], 0.12 µg/mL (≈ 0.346 µM); with Staphylococcus aureus, 0.12 µg/mL (≈ 0.346 µM); with Enterococcus faecalis, 1 µg/mL (≈ 2.89 µM); in the assay with Morganella morganii, 0.5 µg/mL (≈ 1.44 µM); in the assay on Bacillus subtilis, 0.015 µg/mL (≈ 0.0433 µM). Also, the MIC against Bacillus cereus turned out to be 1 µg/mL (≈ 2.89 µM); against Pseudomonas aeruginosa it was 2 µg/mL (≈ 5.77 µM); against Escherichia coli, 0.12 µg/mL (≈ 0.346 µM); with Proteus vulgaris, 0.25 µg/mL (≈ 0.722 µM); in the assay with Enterobacter cloacae, 0.25 µg/mL (≈ 0.722 µM).
Turning to `CC1(CN)CN(c2c(F)cc3c(=O)c(C(=O)O)cn(C4CC4)c3c2F)C1`, the minimum inhibitory concentration (MIC) against Klebsiella pneumoniae came to 0.25 µg/mL (≈ 0.688 µM); in [1] it was 0.5 µg/mL (≈ 1.38 µM); against Staphylococcus aureus, 1 µg/mL (≈ 2.75 µM); in the assay on Enterococcus faecalis it was 2 µg/mL (≈ 5.5 µM); against Morganella morganii it was 3 µg/mL (≈ 8.26 µM); against Bacillus subtilis, 0.25 µg/mL (≈ 0.688 µM). The MIC was found to be 0.5 µg/mL (≈ 1.38 µM) with Bacillus cereus; 4 µg/mL (≈ 11 µM) against Pseudomonas aeruginosa; 0.5 µg/mL (≈ 1.38 µM) in the assay with Escherichia coli; 1 µg/mL (≈ 2.75 µM) in the assay on Proteus vulgaris; 0.5 µg/mL (≈ 1.38 µM) against Enterobacter cloacae.
As for `O=C(O)c1cn(C2CC2)c2c(F)c(N3CCC3)c(F)cc2c1=O`, the MIC is 0.25 µg/mL (≈ 0.781 µM) against Klebsiella pneumoniae; 0.12 µg/mL (≈ 0.375 µM) in [1]; 0.25 µg/mL (≈ 0.781 µM) with Staphylococcus aureus; 1 µg/mL (≈ 3.12 µM) against Enterococcus faecalis; 0.25 µg/mL (≈ 0.781 µM) in the assay with Morganella morganii; 0.015 µg/mL (≈ 0.0468 µM) against Bacillus subtilis. In addition, the MIC came out at 0.25 µg/mL (≈ 0.781 µM) with Bacillus cereus; 2 µg/mL (≈ 6.24 µM) against Pseudomonas aeruginosa; 0.25 µg/mL (≈ 0.781 µM) against Escherichia coli; 0.25 µg/mL (≈ 0.781 µM) against Proteus vulgaris; 0.25 µg/mL (≈ 0.781 µM) in the assay on Enterobacter cloacae.
Turning to `CCn1cc(C(=O)O)c(=O)c2cc(F)c(N3CC(C)(N)C3)c(Cl)c21`, the MIC with Klebsiella pneumoniae turned out to be 0.03 µg/mL (≈ 0.0848 µM); in assay [1], 0.25 µg/mL (≈ 0.707 µM); against Staphylococcus aureus, 0.25 µg/mL (≈ 0.707 µM); against Enterococcus faecalis it was 1 µg/mL (≈ 2.83 µM); in the assay on Morganella morganii it was 0.06 µg/mL (≈ 0.17 µM); in the assay with Bacillus subtilis, 0.06 µg/mL (≈ 0.17 µM). The minimal inhibitory concentration (MIC) in the assay with Bacillus cereus is 0.25 µg/mL (≈ 0.707 µM); against Pseudomonas aeruginosa, 1 µg/mL (≈ 2.83 µM); in the assay with Escherichia coli, 0.03 µg/mL (≈ 0.0848 µM); against Proteus vulgaris it was 0.5 µg/mL (≈ 1.41 µM); with Enterobacter cloacae it was 0.06 µg/mL (≈ 0.17 µM).
`CCNCC1(C)CN(c2cc3c(cc2F)c(=O)c(C(=O)O)cn3C2CC2)C1`: the MIC came to 0.5 µg/mL (≈ 1.34 µM) in the assay on Klebsiella pneumoniae; 0.5 µg/mL (≈ 1.34 µM) in assay [1]; 0.25 µg/mL (≈ 0.669 µM) in the assay with Staphylococcus aureus; 1 µg/mL (≈ 2.68 µM) in the assay on Enterococcus faecalis; 0.5 µg/mL (≈ 1.34 µM) against Morganella morganii; 0.12 µg/mL (≈ 0.321 µM) against Bacillus subtilis. In addition, the MIC was 0.12 µg/mL (≈ 0.321 µM) against Bacillus cereus; 4 µg/mL (≈ 10.7 µM) in the assay with Pseudomonas aeruginosa; 0.12 µg/mL (≈ 0.321 µM) against Escherichia coli; 0.25 µg/mL (≈ 0.669 µM) in the assay on Proteus vulgaris; 0.25 µg/mL (≈ 0.669 µM) in the assay on Enterobacter cloacae.
With `CC(=O)CN(C)C1(C)CN(c2cc3c(cc2F)c(=O)c(C(=O)O)cn3C2CC2)C1`, the MIC stood at 0.015 µg/mL (≈ 0.0374 µM) in the assay on Klebsiella pneumoniae; 0.25 µg/mL (≈ 0.623 µM) in [1]; 0.25 µg/mL (≈ 0.623 µM) against Staphylococcus aureus; 2 µg/mL (≈ 4.98 µM) against Enterococcus faecalis; 0.5 µg/mL (≈ 1.25 µM) in the assay with Morganella morganii; 0.06 µg/mL (≈ 0.149 µM) against Bacillus subtilis. The MIC against Bacillus cereus is 0.25 µg/mL (≈ 0.623 µM); with Pseudomonas aeruginosa, 4 µg/mL (≈ 9.96 µM); in the assay with Escherichia coli, 0.25 µg/mL (≈ 0.623 µM); against Proteus vulgaris, 0.5 µg/mL (≈ 1.25 µM); against Enterobacter cloacae, 0.25 µg/mL (≈ 0.623 µM).
`O=C(O)c1cn(C2CC2)c2c(F)c(N3CC(C(=O)O)C3)c(F)cc2c1=O`: the minimum inhibitory concentration (MIC) (in the assay on Klebsiella pneumoniae; in assay [1]; in the assay on Staphylococcus aureus; in the assay with Enterococcus faecalis; with Morganella morganii; with Bacillus subtilis) was > 16 µg/mL throughout. Further, the minimal inhibitory concentration (MIC) with Bacillus cereus, against Pseudomonas aeruginosa, in the assay on Escherichia coli, with Proteus vulgaris and against Enterobacter cloacae was > 16 µg/mL each time.
For `N#CC1CN(c2c(F)cc3c(=O)c(C(=O)O)cn(C4CC4)c3c2F)C1`, the MIC is 0.5 µg/mL (≈ 1.45 µM) against Klebsiella pneumoniae; 0.5 µg/mL (≈ 1.45 µM) in assay [1]; 1 µg/mL (≈ 2.9 µM) against Staphylococcus aureus; 4 µg/mL (≈ 11.6 µM) against Enterococcus faecalis; 1 µg/mL (≈ 2.9 µM) in the assay on Morganella morganii; 0.06 µg/mL (≈ 0.174 µM) in the assay on Bacillus subtilis. Moreover, the minimal inhibitory concentration (MIC) against Bacillus cereus is 0.5 µg/mL (≈ 1.45 µM); in the assay on Pseudomonas aeruginosa, 8 µg/mL (≈ 23.2 µM); with Escherichia coli, 1 µg/mL (≈ 2.9 µM); against Proteus vulgaris, 1 µg/mL (≈ 2.9 µM); against Enterobacter cloacae it was 1 µg/mL (≈ 2.9 µM).
